Literature values in US9512402B2, “Compositions for the preparation of mature dendritic cells” (Helmholtz Zentrum Munchen Deutsches Forschungszentrum fur …, priority 2006, dated 2016).

Test system: mature DCs
Settings: DCs matured only with IFNα; Frankenberger 2005

Substance: IFNα
- EGFP protein expression following RNA transfer: failed to express EGFP protein
